Experimental data from US9593305B2, “Differentiation of pluripotent stem cells” (Janssen Biotech, Inc., priority 2008, dated 2017).
Where “and” joins values, the source holds several entries; their conditions need not be identical. Equal entries are not always repeated.

Test system: H1 human embryonic stem cells
Assay: Compounds and growth factors with low dose activin A (Example 9, Table 9)
Format: cell-based
Procedure: Clusters of H1 human embryonic stem cells were grown on reduced growth factor […]™ (Invitrogen; Cat #356231)-coated tissue culture plastic. Cells were passaged using collagenase (Invitrogen; Cat #17104-019) treatment and gentle scraping, washed to remove residual enzyme, and plated with even dispersal at a ratio of 1:1 (surface area) on reduced growth factor […]™-coated 96-well black plates (Packard ViewPlates; PerkinElmer; Cat #6005182) using volumes of 100 μl/well. Cells were allowed to attach as clusters and then recover log phase growth over a 1 to 3 day period, feeding daily with MEF conditioned medium supplemented with 8 ng/ml bFGF (R&D Systems; Cat #233-FB). Plates were maintained at 37° C., 5% CO2 in a humidified box throughout the duration of assay.
Stocks of growth factors purchased from R&D Systems were EGF (Cat #236-EG), FGF4 (Cat #235-F4), PDGF-A (Cat #221-AA), PDGF-D (Cat #1159-SB), PDGF-A/B (Cat #222-AB), VEGF (Cat #293-VE), and GDF-8 (Cat #788-08). Activin A was purchased from PeproTech (Cat #). Muscimol was purchased from Tocris (Cat #0289). All growth factors were solubilized in PBS with 0.1% BSA (Sigma; Cat #A7888) and stored frozen at −80° C. Muscimol was solubilized in 100% DMSO (Sigma; Cat #D2650) and stored frozen at −80° C. The compounds were available as 5 mM stocks in 96-well plate format, solubilized in 100% DMSO and stored at −80° C. The compounds were further diluted to an intermediate concentration of 0.2 mM in 50 mM HEPES (Invitrogen; Cat #15630-080), 20% DMSO and stored at 4° C. All growth factors and inhibitors were prepared in a deep well, 96-well polypropylene plate, diluted to 5× intermediate stocks in DMEM:F12 base medium at the beginning of assay and stored at 4° C.
A secondary screening assay was conducted, testing in triplicate and feeding on alternate days over the four-day assay timeframe. Assays were initiated by aspirating culture medium from each well followed by three washes in PBS to remove residual growth factors and serum. Test volumes of 80 μl per well were added back containing DMEM:F12 base medium (Invitrogen; Cat #11330-032) supplemented with 0.625% FCS (HyClone; Cat #SH30070.03), 25 ng/ml Wnt3a (R&D Systems), 12.5 ng/ml activin A, and 3.125 μM compound plus 20 μl 5× stock of growth factor or small molecule to yield a final concentration of 0.5% FCS, 20 ng/ml Wnt3a, 10 ng/ml activin A, and 2.5 μM compound. All remaining growth factors were tested at a final assay concentration of 50 ng/ml (EGF, FGF4, PDGF-A, PDGF-A/B, VEGF), with the exception of GDF-8 used at 25 ng/ml. Final assay concentration of muscimol was 20 μM. Positive control wells (100 μl/well) contained the same base medium supplemented with 0.5% FCS, 20 ng/ml Wnt3a and 10 ng/ml (low dose) or 100 ng/ml (high dose) activin A. Negative control wells (100 μl/well) contained the same base medium with 0.5% FCS and 20 ng/ml Wnt3a, omitting activin A.
Positive control wells (100 μl/well) contained the same base medium supplemented with 2% FCS and 10 ng/ml or 100 ng/ml activin A, omitting Wnt3a. Negative control wells (100 μl/well) contained the same base medium with 2% FCS, omitting both activin A and Wnt3a.
At the conclusion of four-days of culture, assay plates were washed twice with PBS, fixed with 4% paraformaldehyde (Alexis Biochemical; Cat #ALX-350-011) at room temperature for 20 minutes, then washed three times with PBS and permeabilized with 0.5% Triton X-100 (Sigma; Cat #T8760-2) for 20 minutes at room temperature. Cells were washed again three times with PBS and blocked with 4% chicken serum (Invitrogen; Cat #16110082) in PBS for 30 minutes at room temperature. Primary antibody (goat anti-human SOX17; R&D Systems; cat #AF1924) was diluted 1:100 in 4% chicken serum and added to each well for one hour at room temperature. […]

[1] = 10 ng/ml AA + compound + EGF + FGF4 + PDGF-A + Muscimol + Wnt3a
[2] = 10 ng/ml AA + compound + EGF + FGF4 + PDGF-A + VEGF + PDGF-D + Muscimol + GDF8 + Wnt3a
[3] = 10 ng/ml AA + compound + EGF + FGF4 + PDGF-AB + VEGF + Wnt3a
[4] = 10 ng/ml AA + compound + EGF + FGF4 + PDGF-AB + Wnt3a
[5] = 10 ng/ml AA + compound + EGF + FGF4 + Wnt3a
[6] = 10 ng/ml AA + compound + EGF + Wnt3a
[7] = 10 ng/ml AA + compound + FGF4 + Wnt3a
[8] = 10 ng/ml AA alone, no compound, no growth factors
[9] = 100 ng/ml AA alone, no compound, no growth factors

Compound	Cell Number, % of positive control [1]	Cell Number, Average Total Cell Number [1]	Sox17 Expression, % of positive control [1]	Sox17 Expression, Average Total Intensity [1]	Cell Number, % of positive control [2]	Cell Number, Average Total Cell Number [2]	Sox17 Expression, % of positive control [2]	Sox17 Expression, Average Total Intensity [2]	Cell Number, % of positive control [3]	Cell Number, Average Total Cell Number [3]	Sox17 Expression, % of positive control [3]	Sox17 Expression, Average Total Intensity [3]	Cell Number, % of positive control [4]	Cell Number, Average Total Cell Number [4]	Sox17 Expression, % of positive control [4]	Sox17 Expression, Average Total Intensity [4]	Cell Number, % of positive control [5]	Cell Number, Average Total Cell Number [5]	Sox17 Expression, % of positive control [5]	Sox17 Expression, Average Total Intensity [5]	further results
CCN1CC(=O)NCCCc2cncc(c2)-c2ncnc(n2)Nc2cc(Cl)cc(c2)C1 [Compound 35, 10-Chloro-14-ethyl-3,5,7,14,17,23,27-heptaazatetracyclo[19.3.1.1˜2,6˜0.1˜8,12]Theptacosa-1(25), 2(27), 3,5,8(26), 9,11,21,23-nonaen-16-one]	62.29 % of positive control	3820	−1.46 % of positive control	−1.67E+06	41.14 % of positive control	2522	−4.25 % of positive control	−4.86E+06	56.74 % of positive control	3479	−3.46 % of positive control	−3.96E+06	53.21 % of positive control	3263	−3.99 % of positive control	−4.56E+06	44.10 % of positive control	2704	−3.65 % of positive control	−4.17E+06	Cell Number, % of positive control [6]: 2.53 % of positive control; Cell Number, Average Total Cell Number [6]: 155; Sox17 Expression, % of positive control [6]: −6.84 % of positive control; Sox17 Expression, Average Total Intensity [6]: −7.82E+06; Cell Number, % of positive control [7]: 4.64 % of positive control; Cell Number, Average Total Cell Number [7]: 284; Sox17 Expression, % of positive control [7]: −6.59 % of positive control; Sox17 Expression, Average Total Intensity [7]: −7.54E+06; Cell Number, % of positive control (10 ng/ml AA + compound + Wnt3a): 2.83 % of positive control; Cell Number, Average Total Cell Number (10 ng/ml AA + compound + Wnt3a): 173; Sox17 Expression, % of positive control (10 ng/ml AA + compound + Wnt3a): −6.66 % of positive control; Sox17 Expression, Average Total Intensity (10 ng/ml AA + compound + Wnt3a): −7.61E+06
CN1CCC(=O)NCCCNc2ncccc2-c2ncnc(n2)Nc2cccc(c2)C1 [Compound 39, 9-Methyl-2,3,4,5,7,8,9,10-octahydro-16H-17,21-(azeno)-11,15-(metheno)pyrido[3,2-g][1,3,5,9,13,17]hexaazacyclotricosin-6(1H)-one]	37.64 % of positive control	2879	3.24 % of positive control	3.61E+06	75.00 % of positive control	5738	19.24 % of positive control	2.14E+07	33.08 % of positive control	2531	2.53 % of positive control	2.82E+06	39.07 % of positive control	2989	−0.02 % of positive control	−1.78E+04	9.59 % of positive control	734	−3.53 % of positive control	−3.93E+06	Cell Number, % of positive control [6]: 2.75 % of positive control; Cell Number, Average Total Cell Number [6]: 211; Sox17 Expression, % of positive control [6]: −4.08 % of positive control; Sox17 Expression, Average Total Intensity [6]: −4.54E+06; Cell Number, % of positive control [7]: 6.81 % of positive control; Cell Number, Average Total Cell Number [7]: 521; Sox17 Expression, % of positive control [7]: −4.01 % of positive control; Sox17 Expression, Average Total Intensity [7]: −4.46E+06; Cell Number, % of positive control (10 ng/ml AA + compound + Wnt3a): 6.78 % of positive control; Cell Number, Average Total Cell Number (10 ng/ml AA + compound + Wnt3a): 518; Sox17 Expression, % of positive control (10 ng/ml AA + compound + Wnt3a): −2.13 % of positive control; Sox17 Expression, Average Total Intensity (10 ng/ml AA + compound + Wnt3a): −2.37E+06
O=C1NCCCc2cncc(c2)-c2ncnc(n2)Nc2cccc(c2)CN2CCC1CC2 [Compound 22, 1,8,10,12,16,22,30-Heptaazapentacyclo[22.2.2.1-3,7˜0.1˜9,13˜1-14,18˜]hentriaconta-3(31), 4,6,9(30), 10,12,14(29), 15,17-nonaen-23-one]	132.10 % of positive control	8100	38.65 % of positive control	4.42E+07	139.53 % of positive control	8556	76.82 % of positive control	8.78E+07	124.87 % of positive control	7657	41.09 % of positive control	4.70E+07	130.06 % of positive control	7975	30.03 % of positive control	3.43E+07	159.83 % of positive control	9800	40.13 % of positive control	4.59E+07	Cell Number, % of positive control [6]: 81.55 % of positive control; Cell Number, Average Total Cell Number [6]: 5001; Sox17 Expression, % of positive control [6]: 24.45 % of positive control; Sox17 Expression, Average Total Intensity [6]: 2.80E+07; Cell Number, % of positive control [7]: 105.84 % of positive control; Cell Number, Average Total Cell Number [7]: 6490; Sox17 Expression, % of positive control [7]: 37.43 % of positive control; Sox17 Expression, Average Total Intensity [7]: 4.28E+07; Cell Number, % of positive control (10 ng/ml AA + compound + Wnt3a): 74.09 % of positive control; Cell Number, Average Total Cell Number (10 ng/ml AA + compound + Wnt3a): 4543; Sox17 Expression, % of positive control (10 ng/ml AA + compound + Wnt3a): 26.65 % of positive control; Sox17 Expression, Average Total Intensity (10 ng/ml AA + compound + Wnt3a): 3.05E+07
Activin A: recombinant human activin A (PeproTech), TGF-beta family member																					Cell Number, % of positive control [8]: 67.67 % of positive control and 100.00 % of positive control; Cell Number, Average Total Cell Number [8]: 5177 and 6132; Cell Number, % of positive control [9]: 100.00 % of positive control and 157.51 % of positive control; Cell Number, Average Total Cell Number [9]: 7650 and 9658; Sox17 Expression, % of positive control [9]: 100.00 % of positive control; Sox17 Expression, Average Total Intensity [9]: 1.11E+08 and 1.14E+08
